The source of these data is ChEMBL document CHEMBL4813941, “Secondary Metabolites from the Leather Coral-Derived Fungal Strain Xylaria sp. FM1005 and Their Glycoprotein IIb/IIIa Inhibitory Activity” (J Nat Prod, 2021).

Where “and” joins values, the source holds several entries; their conditions need not be identical. Equal values may be shown once. Calls of active or inactive are those of the source. The calls are words filed in the database; no cut-off is given here.

The subject of data set [1] is Plasma. Kind of data set: Antiplatelet activity in Sprague-Dawley rat platelet-rich plasma assessed as inhibition of CaCl2-induced platelet aggregation at 1 ug/ml preincubated for 5 mins followed by CaCl2 addition and measured after 5 mins by light microscopic analysis. It counts as functional, cell-free. The following applies: dose 1.0 µg/ml, time 10.0 min.
Data set [2] deals with Plasma. As to the kind of experiment: Antiplatelet activity in Sprague-Dawley rat platelet-rich plasma assessed as inhibition of ADP-induced platelet aggregation at 1 ug/ml preincubated for 5 mins followed by ADP addition and measured after 5 mins by light microscopic analysis. It counts as functional, cell-free. The following applies: dose 1.0 µg/ml, time 10.0 min.
A further data set concerns Escherichia coli. As to the kind of experiment: Antibacterial activity against Escherichia coli at 80 ug/ml incubated for 24 hrs by resazurin dye based broth microdilution method. In kind it is functional, organism-based. The following applies: dose 80.0 µg/ml. (The colour change of resazurin is a common sign of viable cells or microbes.)
The test system of a further data set is Pseudomonas aeruginosa. Kind of data set: Antibacterial activity against Pseudomonas aeruginosa at 80 ug/ml incubated for 24 hrs by resazurin dye based broth microdilution method. In kind it is functional, organism-based. The following applies: dose 80.0 µg/ml.
The test system of the next data set is A2780. Kind of data set: Antiproliferative activity against human A2780 cells at 40 uM incubated for 72 hrs by CyQuant assay. To be noted: a2780, 72 h. In kind it is cell-based.
The next data set deals with Staphylococcus aureus. As to the kind of experiment: Antibacterial activity against Staphylococcus aureus at 80 ug/ml incubated for 24 hrs by resazurin dye based broth microdilution method. It counts as functional, organism-based. The following applies: dose 80.0 µg/ml.
Data set [3] deals with T1, Integrin subunit alpha 2b/beta-3 (Rattus norvegicus) (UniProt D3ZAC0+Q8R2H2). As to the kind of experiment: (§1) Inhibition of fibrinogen binding to rat platelet integrin alpha2b beta3 by ELISA based solid phase binding assay. In kind it is cell-based.
The target in data set [4] is T2, Integrin subunit alpha 2b/beta-3 (Rattus norvegicus, UniProt D3ZAC0+Q8R2H2).
T2 sequence (D3ZAC0 whole entry): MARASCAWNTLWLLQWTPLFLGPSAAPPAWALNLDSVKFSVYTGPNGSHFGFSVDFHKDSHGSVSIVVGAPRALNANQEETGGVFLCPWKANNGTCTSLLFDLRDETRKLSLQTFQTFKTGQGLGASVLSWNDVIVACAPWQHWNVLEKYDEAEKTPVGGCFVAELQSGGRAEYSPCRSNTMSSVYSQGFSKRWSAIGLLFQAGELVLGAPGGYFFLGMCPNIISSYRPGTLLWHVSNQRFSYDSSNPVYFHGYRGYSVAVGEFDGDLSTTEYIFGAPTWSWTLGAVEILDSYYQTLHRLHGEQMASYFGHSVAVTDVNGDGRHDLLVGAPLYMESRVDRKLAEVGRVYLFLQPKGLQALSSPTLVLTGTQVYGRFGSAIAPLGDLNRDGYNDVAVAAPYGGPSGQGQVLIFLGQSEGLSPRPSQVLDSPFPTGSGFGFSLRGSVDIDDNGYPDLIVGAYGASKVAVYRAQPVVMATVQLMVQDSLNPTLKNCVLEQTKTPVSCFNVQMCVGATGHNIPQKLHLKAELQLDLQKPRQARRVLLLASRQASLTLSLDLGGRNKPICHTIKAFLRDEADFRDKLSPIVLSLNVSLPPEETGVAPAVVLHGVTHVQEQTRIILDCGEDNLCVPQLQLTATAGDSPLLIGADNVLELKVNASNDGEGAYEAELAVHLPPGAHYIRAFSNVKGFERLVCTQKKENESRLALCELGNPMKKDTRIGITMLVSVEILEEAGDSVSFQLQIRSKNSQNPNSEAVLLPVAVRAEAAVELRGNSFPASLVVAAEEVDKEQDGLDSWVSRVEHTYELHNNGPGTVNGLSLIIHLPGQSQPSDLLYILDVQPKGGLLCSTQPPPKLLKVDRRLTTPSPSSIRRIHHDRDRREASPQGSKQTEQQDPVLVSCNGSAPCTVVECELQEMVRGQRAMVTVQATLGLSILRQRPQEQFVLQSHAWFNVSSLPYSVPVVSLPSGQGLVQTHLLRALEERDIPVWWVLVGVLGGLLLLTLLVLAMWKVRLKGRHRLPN
T2 sequence (Q8R2H2 whole entry): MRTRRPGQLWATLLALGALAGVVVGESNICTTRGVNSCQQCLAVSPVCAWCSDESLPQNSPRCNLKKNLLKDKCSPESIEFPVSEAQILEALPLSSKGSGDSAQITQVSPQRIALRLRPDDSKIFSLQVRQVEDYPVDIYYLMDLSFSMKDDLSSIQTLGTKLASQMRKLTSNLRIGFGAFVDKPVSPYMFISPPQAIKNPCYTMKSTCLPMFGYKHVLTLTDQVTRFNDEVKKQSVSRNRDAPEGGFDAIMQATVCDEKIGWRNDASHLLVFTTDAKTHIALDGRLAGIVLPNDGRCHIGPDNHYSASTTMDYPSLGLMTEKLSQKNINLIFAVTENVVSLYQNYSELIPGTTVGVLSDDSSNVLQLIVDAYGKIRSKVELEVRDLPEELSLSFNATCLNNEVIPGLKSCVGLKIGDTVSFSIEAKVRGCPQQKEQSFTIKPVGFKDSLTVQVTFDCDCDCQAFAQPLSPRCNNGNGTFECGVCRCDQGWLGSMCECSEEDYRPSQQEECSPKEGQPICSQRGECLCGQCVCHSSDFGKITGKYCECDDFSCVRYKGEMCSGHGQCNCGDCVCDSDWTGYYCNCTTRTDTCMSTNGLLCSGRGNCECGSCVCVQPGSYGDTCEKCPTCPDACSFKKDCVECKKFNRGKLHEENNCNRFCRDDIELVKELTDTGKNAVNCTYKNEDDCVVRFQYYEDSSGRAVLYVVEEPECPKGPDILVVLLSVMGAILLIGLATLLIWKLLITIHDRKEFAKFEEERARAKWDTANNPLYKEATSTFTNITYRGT
The description is as §1. It counts as cell-based.

The next data set deals with HEK293. As to the kind of experiment: Antiproliferative activity against human HEK293 cells at 40 uM by SRB assay. It counts as cell-based. The following applies: hek293, 40 µM. Background: In SRB staining, fixed cells bind dye roughly in proportion to their protein.
In a further data set the test system is Bacillus subtilis. As to the kind of experiment: Antibacterial activity against Bacillus subtilis at 80 ug/ml incubated for 24 hrs by resazurin dye based broth microdilution method. It counts as functional, organism-based. To be noted: dose 80.0 µg/ml.
Data set [5] addresses T1, Integrin subunit alpha 2b/beta-3 (Rattus norvegicus). As to the kind of experiment: Inhibition of fibrinogen binding to rat platelet integrin alpha2b beta3 at 1 ug/ml by ELISA based solid phase binding assay. In kind it is cell-based. The following applies: dose 1.0 µg/ml. In general terms: In an ELISA, binding on a coated surface is turned into a signal by an enzyme label.

With `CC#CCOc1ccc(C[C@H](NC(=O)CCCCC)C(=O)O)cc1`, the result with Plasma [1] and in the data set on Plasma [2] was Active. Besides, the result with Escherichia coli, in the data set on Pseudomonas aeruginosa, in the data set with Staphylococcus aureus and with Bacillus subtilis was inactive. The Activity result in the data set on A2780 and in the data set with HEK293 was “Non-Toxic” in each case. The inhibition result in [3] is “Dose-Dependent Effect”. Further, in data set [4], the IC50 – broadly, the concentration that inhibits the measured activity by half – is 610 nM and 603 nM.
As to `CC#CCOc1ccc(C[C@H](NC(=O)CCC)C(=O)O)cc1`, in data set [5], the inhibition entry was “inactive”. Also, the result in the data set with Plasma [1], with Plasma [2], in the data set with Escherichia coli, in the data set with Pseudomonas aeruginosa, with Staphylococcus aureus and in the data set on Bacillus subtilis was inactive. Moreover, the Activity result in the data set with A2780 and in the data set with HEK293 was “Non-Toxic” in each case.
Take `CCCCCC(=O)N[C@@H](Cc1ccc(OCC#CCO)cc1)C(=O)O`: the inhibition result in data set [5] is “inactive”. In addition, the outcome in the data set with Plasma [1], in the data set on Plasma [2], with Escherichia coli, in the data set with Pseudomonas aeruginosa, in the data set on Staphylococcus aureus and in the data set on Bacillus subtilis was inactive. Besides, the Activity entry with A2780 and in the data set on HEK293 was “Non-Toxic” throughout.
For the compound `C/C(=C/COc1ccc(CC(=O)O)cc1)C(=O)O`, the inhibition result in data set [5] is “inactive”. In addition, the outcome with Plasma [1], in the data set on Plasma [2], in the data set on Escherichia coli, in the data set with Pseudomonas aeruginosa, with Staphylococcus aureus and in the data set on Bacillus subtilis was inactive. For the same compound, the Activity result in the data set on A2780 and with HEK293 was “Non-Toxic” each time.
For the compound `CC#CCOc1ccc(C[C@H](NC(=O)CCCCC)C(=O)OC)cc1`, the outcome in the data set on Plasma [1] and with Plasma [2] was Active. Further, the result with Escherichia coli, in the data set with Pseudomonas aeruginosa, with Staphylococcus aureus and in the data set on Bacillus subtilis was inactive. Also, the Activity entry with A2780 and in the data set on HEK293 was “Non-Toxic” in each case. In addition, the inhibition entry in data set [3] is “Dose-Dependent Effect”. Moreover, the IC50 in data set [4] was 890 nM and 897 nM.
For `CC#CCOc1ccc(C[C@H](NC(=O)CCCC)C(=O)O)cc1`, the inhibition entry in data set [5] is “inactive”. Also, the outcome in the data set with Plasma [1], in the data set with Plasma [2], in the data set on Escherichia coli, in the data set on Pseudomonas aeruginosa, in the data set on Staphylococcus aureus and with Bacillus subtilis was inactive. Besides, the Activity result in the data set on A2780 and in the data set on HEK293 was “Non-Toxic” in each case.
Turning to `CCCCS(=O)(=O)N[C@@H](Cc1ccc(OCCCCC2CCNCC2)cc1)C(=O)O` [TIROFIBAN], the IC50 in [4] was 130 nM and 136 nM.
